Earlier results as cited in patent US20250339403A1, “Tryptamine Formulations and Uses Thereof” (Natural MedTech Pty Ltd, priority 2022, published 2025).
Read-outs that look alike come from different tables or passages of the source.

What was measured:
[1] = in vivo
MAO = settings: after administration
[2] = weight-to-weight basis
[3] = not given; remark: listed apart in the source

For `O=C(NCCN1CCOCC1)c1ccc(Cl)cc1` [Moclobemide, 4-chloro-N-(2-morpholin-4-ylethyl)benzamide], the half-life [1] is given as “about 2 hours” and the “time by which inhibition of MAO is completely absent” value (MAO) is given as ≤ 24 h.
For `CN(C)CCc1c[nH]c2cccc(O)c12` [Psilocin, 3-[2-(dimethylamino)ethyl]-1H-indol-4-ol], the “potency relative to psilocybin” value [2] is listed as “about 1.4 times”.
In the case of `COc1ccc2[nH]cc(CCN(C)C)c2c1` [Formulation 5-MeO-DMT, 5-methoxy-N,N-dimethyltryptamine], the “amount required to induce hallucinations” value (inhalation) is given as 6 to 20 mg, the “amount required to induce hallucinations” value (intravenous injection) is given as 0.7 to 3.1 mg and the “amount required to induce hallucinations” value (oral administration) is given as ~30 mg. The “amount required to induce hallucinations” value (sublingual or intranasal insufflation) was ~10 mg.
In the case of `CN(C)CCc1c[nH]c2ccccc12` [DMT, N,N-dimethyltryptamine], the psychotropic effects (after oral consumption) is given as “not experienced”, the psychotropic effects (after smoking an equivalent dose) is given as “noted” and the effectiveness (inhaled free-base DMT (0.07-0.28 mg/kg)) is given as “have not shown effectiveness”. The effectiveness (rectally administered (1.7 mg/kg of the bioxalate salt)) was “have not shown effectiveness”, the “share of recovered compounds that was DMT-N-oxide (DMT-NO)” value ([3]; after oral administration) was 3% and the “share of recovered compounds that were MAO-dependent IAA” value ([3]; after oral administration) was 97%. The “unmetabolized DMT in blood samples and urine” value ([3]; after oral administration) was “no unmetabolized DMT” and the “share of recovered metabolites that were MAO-dependent IAA” value ([3]; smoking DMT) was 63%.
